Data: patent US20250313549A1, “HERBICIDAL DERIVATIVES” (SYNGENTA CROP PROTECTION AG, priority 2021, published 2025)

Legend:
Format in all cases: in vivo
[1] = tested on: Amaranthus retoflexus (AMARE); assay: Pre-emergence test, herbicidal damage; conditions: 1000 g/ha, evaluated after 13 days
[2] = tested on: Echinochloa crus-galli (ECHCG); assay: Pre-emergence test, herbicidal damage; conditions: 1000 g/ha, evaluated after 13 days
[3] = tested on: Amaranthus palmeri (AMAPA); assay: Pre-emergence test, herbicidal damage; conditions: 1000 g/ha, evaluated after 13 days
[4] = tested on: Setaria faberi (SETFA); assay: Pre-emergence test, herbicidal damage; conditions: 1000 g/ha, evaluated after 13 days
[5] = tested on: Zea mays (ZEAMX); assay: Pre-emergence test, herbicidal damage; conditions: 1000 g/ha, evaluated after 13 days
[6] = tested on: Ipomoea hederacea (IPOHE); assay: Pre-emergence test, herbicidal damage; conditions: 1000 g/ha, evaluated after 13 days
[7] = tested on: Amaranthus palmeri (AMAPA); assay: Post-emergence test, herbicidal damage; conditions: sprayed after 8 days cultivation, 1000 g/ha, evaluated after 13 days
Procedure: (§1) Seeds of a variety of test species are sown in standard soil in pots (Amaranthus retoflexus (AMARE), Echinochloa crus-galli (ECHCG), Amaranthus palmeri (AMAPA), Setaria faberi (SETFA), Zea mays (ZEAMX), Ipomoea hederacea (IPOHE)). After 8 days cultivation under controlled conditions in a glasshouse (at 24° C./16° C., day/night; 14 hours light; 65% humidity), the plants are sprayed with an aqueous spray solution derived from the formulation of the technical active ingredient in acetone/water (50:50) solution containing 0.5% Tween 20 (polyoxyethylene sorbitan monolaurate, CAS RN 9005-64-5). Compounds are applied at 1000 g/ha unless otherwise stated. The test plants are then grown in a glasshouse under controlled conditions in a glasshouse (at 24° C./16° C., day/night; 14 hours light; 65% humidity) and watered twice daily. After 13 days the test is evaluated for the percentage damage caused to the plant. The biological activities are shown in the following table on a five-point scale (5=81-100%; 4=61-80%; 3=41-60%; 2=21-40%; 1=10-20%; 0=0%; -=not tested).

[8] = tested on: Amaranthus retoflexus (AMARE); assay: Post-emergence test, herbicidal damage; conditions: sprayed after 8 days cultivation, 1000 g/ha, evaluated after 13 days
Procedure: as §1

[9] = tested on: Echinochloa crus-galli (ECHCG); assay: Post-emergence test, herbicidal damage; conditions: sprayed after 8 days cultivation, 1000 g/ha, evaluated after 13 days
Procedure: as §1

[10] = tested on: Ipomoea hederacea (IPOHE); assay: Post-emergence test, herbicidal damage; conditions: sprayed after 8 days cultivation, 1000 g/ha, evaluated after 13 days
Procedure: as §1

[11] = tested on: Setaria faberi (SETFA); assay: Post-emergence test, herbicidal damage; conditions: sprayed after 8 days cultivation, 1000 g/ha, evaluated after 13 days
Procedure: as §1

[12] = tested on: Zea mays (ZEAMX); assay: Post-emergence test, herbicidal damage; conditions: sprayed after 8 days cultivation, 1000 g/ha, evaluated after 13 days
Procedure: as §1

Compound: CCOC(=O)c1nn(-c2ncc(Cl)cn2)c2cccc(Br)c2c1=O [Compound 34, ethyl 5-bromo-1-(5-chloropyrimidin-2-yl)-4-oxo-cinnoline-3-carboxylate]
- percentage damage caused to the plant, AMARE [1]: 0 (0=0%)
- percentage damage caused to the plant, ECHCG [2]: 0 (0=0%)
- percentage damage caused to the plant, AMAPA [3]: 1 (1=10-20%)
- percentage damage caused to the plant, SETFA [4]: 1 (1=10-20%)
- percentage damage caused to the plant, ZEAMX [5]: 0 (0=0%)
- percentage damage caused to the plant, IPOHE [6]: 0 (0=0%)
- percentage damage caused to the plant, AMAPA [7]: 1 (1=10-20%)
- percentage damage caused to the plant, AMARE [8]: 3 (3=41-60%)
- percentage damage caused to the plant, ECHCG [9]: 0 (0=0%)
- percentage damage caused to the plant, IPOHE [10]: 3 (3=41-60%)
- percentage damage caused to the plant, SETFA [11]: 2 (2=21-40%)
- percentage damage caused to the plant, ZEAMX [12]: 1 (1=10-20%)

Compound: CCOC(=O)c1nn(-c2ccc(OC(F)F)nc2)c2cccc(Br)c2c1=O [Compound 36, ethyl 5-bromo-1-[6-(difluoromethoxy)-3-pyridyl]-4-oxo-cinnoline-3-carboxylate]
- percentage damage caused to the plant, AMARE [1]: 0 (0=0%)
- percentage damage caused to the plant, ECHCG [2]: 0 (0=0%)
- percentage damage caused to the plant, AMAPA [3]: 1 (1=10-20%)
- percentage damage caused to the plant, SETFA [4]: 1 (1=10-20%)
- percentage damage caused to the plant, ZEAMX [5]: 1 (1=10-20%)
- percentage damage caused to the plant, IPOHE [6]: 0 (0=0%)
- percentage damage caused to the plant, AMAPA [7]: 0 (0=0%)
- percentage damage caused to the plant, AMARE [8]: 2 (2=21-40%)
- percentage damage caused to the plant, ECHCG [9]: 0 (0=0%)
- percentage damage caused to the plant, IPOHE [10]: 1 (1=10-20%)
- percentage damage caused to the plant, SETFA [11]: 1 (1=10-20%)
- percentage damage caused to the plant, ZEAMX [12]: 0 (0=0%)

Compound: CCOC(=O)c1nn(-c2ccnc(Br)c2)c2cccc(Br)c2c1=O [Compound 10, ethyl 5-bromo-1-(2-bromo-4-pyridyl)-4-oxo-cinnoline-3-carboxylate]
- percentage damage caused to the plant, AMARE [1]: 1 (1=10-20%)
- percentage damage caused to the plant, AMAPA [3]: 0 (0=0%)
- percentage damage caused to the plant, SETFA [4]: 0 (0=0%)
- percentage damage caused to the plant, ZEAMX [5]: 0 (0=0%)
- percentage damage caused to the plant, IPOHE [6]: 0 (0=0%)
- percentage damage caused to the plant, AMAPA [7]: 3 (3=41-60%)
- percentage damage caused to the plant, AMARE [8]: 3 (3=41-60%)
- percentage damage caused to the plant, ECHCG [9]: 1 (1=10-20%)
- percentage damage caused to the plant, IPOHE [10]: 0 (0=0%)
- percentage damage caused to the plant, SETFA [11]: 0 (0=0%)
- percentage damage caused to the plant, ZEAMX [12]: 0 (0=0%)

Compound: CCOC(=O)c1nn(-c2ccc(F)nc2)c2cccc(Br)c2c1=O [Compound 23, ethyl 5-bromo-1-(6-fluoro-3-pyridyl)-4-oxo-cinnoline-3-carboxylate]
- percentage damage caused to the plant, AMARE [1]: 0 (0=0%)
- percentage damage caused to the plant, ECHCG [2]: 5 (5=81-100%)
- percentage damage caused to the plant, AMAPA [3]: 0 (0=0%)
- percentage damage caused to the plant, SETFA [4]: 4 (4=61-80%)
- percentage damage caused to the plant, ZEAMX [5]: 0 (0=0%)
- percentage damage caused to the plant, IPOHE [6]: 1 (1=10-20%)
- percentage damage caused to the plant, AMAPA [7]: 0 (0=0%)
- percentage damage caused to the plant, AMARE [8]: 0 (0=0%)
- percentage damage caused to the plant, ECHCG [9]: 4 (4=61-80%)
- percentage damage caused to the plant, IPOHE [10]: 0 (0=0%)
- percentage damage caused to the plant, SETFA [11]: 4 (4=61-80%)
- percentage damage caused to the plant, ZEAMX [12]: 1 (1=10-20%)

Compound: CCOC(=O)c1nn(-c2cc(OC)ncn2)c2cccc(Br)c2c1=O [Compound 32, ethyl 5-bromo-1-(6-methoxypyrimidin-4-yl)-4-oxo-cinnoline-3-carboxylate]
- percentage damage caused to the plant, AMARE [1]: 0 (0=0%)
- percentage damage caused to the plant, ECHCG [2]: 1 (1=10-20%)
- percentage damage caused to the plant, AMAPA [3]: 0 (0=0%)
- percentage damage caused to the plant, SETFA [4]: 1 (1=10-20%)
- percentage damage caused to the plant, ZEAMX [5]: 0 (0=0%)
- percentage damage caused to the plant, IPOHE [6]: 0 (0=0%)
- percentage damage caused to the plant, AMAPA [7]: 1 (1=10-20%)
- percentage damage caused to the plant, AMARE [8]: 1 (1=10-20%)
- percentage damage caused to the plant, ECHCG [9]: 0 (0=0%)
- percentage damage caused to the plant, IPOHE [10]: 1 (1=10-20%)
- percentage damage caused to the plant, SETFA [11]: 0 (0=0%)
- percentage damage caused to the plant, ZEAMX [12]: 0 (0=0%)

Compound: CCOC(=O)c1nn(-c2ccc(OC(F)F)nc2)c2cccc(C(C)=O)c2c1=O [Compound 37, ethyl 5-acetyl-1-[6-(difluoromethoxy)-3-pyridyl]-4-oxo-cinnoline-3-carboxylate]
- percentage damage caused to the plant, AMARE [1]: 0 (0=0%)
- percentage damage caused to the plant, ECHCG [2]: 4 (4=61-80%)
- percentage damage caused to the plant, AMAPA [3]: 0 (0=0%)
- percentage damage caused to the plant, ZEAMX [5]: 4 (4=61-80%)
- percentage damage caused to the plant, IPOHE [6]: 0 (0=0%)
- percentage damage caused to the plant, AMAPA [7]: 0 (0=0%)
- percentage damage caused to the plant, AMARE [8]: 1 (1=10-20%)
- percentage damage caused to the plant, ECHCG [9]: 4 (4=61-80%)
- percentage damage caused to the plant, IPOHE [10]: 2 (2=21-40%)
- percentage damage caused to the plant, SETFA [11]: 1 (1=10-20%)

Compound: CCOC(=O)c1nn(-c2ccnc(OC(F)F)c2)c2cccc(/C(C)=N\OC)c2c1=O [Compound 41, ethyl 1-[2-(difluoromethoxy)-4-pyridyl]-5-[(Z)—N-methoxy-C-methyl-carbonimidoyl]-4-oxo-cinnoline-3-carboxylate]
- percentage damage caused to the plant, AMARE [1]: 0 (0=0%)
- percentage damage caused to the plant, ECHCG [2]: 4 (4=61-80%)
- percentage damage caused to the plant, AMAPA [3]: 0 (0=0%)
- percentage damage caused to the plant, ZEAMX [5]: 1 (1=10-20%)
- percentage damage caused to the plant, IPOHE [6]: 0 (0=0%)
- percentage damage caused to the plant, AMAPA [7]: 1 (1=10-20%)
- percentage damage caused to the plant, AMARE [8]: 1 (1=10-20%)
- percentage damage caused to the plant, ECHCG [9]: 2 (2=21-40%)
- percentage damage caused to the plant, IPOHE [10]: 1 (1=10-20%)
- percentage damage caused to the plant, SETFA [11]: 1 (1=10-20%)

Compound: N#Cc1cccc2c1c(=O)c(C(=O)O)nn2-c1cncnc1 [Compound 1, 5-cyano-4-oxo-1-pyrimidin-5-yl-cinnoline-3-carboxylic acid]
- percentage damage caused to the plant, AMARE [1]: 0 (0=0%)
- percentage damage caused to the plant, ECHCG [2]: 2 (2=21-40%)
- percentage damage caused to the plant, AMAPA [3]: 0 (0=0%)
- percentage damage caused to the plant, SETFA [4]: 0 (0=0%)
- percentage damage caused to the plant, ZEAMX [5]: 0 (0=0%)
- percentage damage caused to the plant, IPOHE [6]: 0 (0=0%)
- percentage damage caused to the plant, AMAPA [7]: 1 (1=10-20%)
- percentage damage caused to the plant, AMARE [8]: 2 (2=21-40%)
- percentage damage caused to the plant, ECHCG [9]: 2 (2=21-40%)
- percentage damage caused to the plant, IPOHE [10]: 1 (1=10-20%)
- percentage damage caused to the plant, SETFA [11]: 1 (1=10-20%)
- percentage damage caused to the plant, ZEAMX [12]: 1 (1=10-20%)

Compound: CCOC(=O)c1nn(-c2cnc(Cl)c(C)c2)c2cccc(Br)c2c1=O [Compound 26, ethyl 5-bromo-1-(6-chloro-5-methyl-3-pyridyl)-4-oxo-cinnoline-3-carboxylate]
- percentage damage caused to the plant, AMARE [1]: 1 (1=10-20%)
- percentage damage caused to the plant, ECHCG [2]: 0 (0=0%)
- percentage damage caused to the plant, AMAPA [3]: 1 (1=10-20%)
- percentage damage caused to the plant, ZEAMX [5]: 0 (0=0%)
- percentage damage caused to the plant, IPOHE [6]: 0 (0=0%)
- percentage damage caused to the plant, AMAPA [7]: 1 (1=10-20%)
- percentage damage caused to the plant, AMARE [8]: 2 (2=21-40%)
- percentage damage caused to the plant, ECHCG [9]: 0 (0=0%)
- percentage damage caused to the plant, IPOHE [10]: 2 (2=21-40%)
- percentage damage caused to the plant, SETFA [11]: 1 (1=10-20%)
